Experimental data reported in ChEMBL document CHEMBL1201862, “PubChem BioAssay data set” (2004).
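Step 1: Grow cells in 96-well plates. Step 2: Expose to compound for 48 hours at 5 concentrations. Step 3: Interpolate endpoints linearly; if unreached, use highest concentration. At the GI50, growth is halved.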 Activity calls are given as the source filed them. Rule as the data show it: active = GI50 up to about 1.1 µM and inactive = higher.

What was measured:
Assay in all cases: NCI tumour cell line growth inhibition, 48 h
[1] = tested on: NCI-H460
[2] = tested on: HCC 2998
[3] = tested on: COLO 205
[4] = tested on: NCI/ADR-RES
[5] = tested on: SF-268
[6] = tested on: MOLT-4
[7] = tested on: 786-0
[8] = tested on: ACHN
[9] = tested on: OVCAR-4
[10] = tested on: NCI-H23
[11] = tested on: Malme-3M
[12] = tested on: K562
[13] = tested on: TK-10
[14] = tested on: Hs-578T
[15] = tested on: MDA-MB-231
[16] = tested on: IGROV-1
[17] = tested on: MDA-MB-435
[18] = tested on: OVCAR-5
[19] = tested on: T47D
[20] = tested on: SNB-19

SMILES | GI50 [1] | GI50 [2] | GI50 [3] | GI50 [4] | GI50 [5] | GI50 [6] | GI50 [7] | GI50 [8] | GI50 [9] | GI50 [10] | GI50 [11] | GI50 [12] | GI50 [13] | GI50 [14] | GI50 [15] | GI50 [16] | GI50 [17] | GI50 [18] | GI50 [19] | GI50 [20]
NC1CCC(c2cc3ccccc3s2)(N2CCCCC2)CC1 (stereo not given) | 1.63 µM (inactive) | 1.04 µM (active) | 1.58 µM (inactive) | 1.19 µM (inactive) | 3.57 µM (inactive) | 1.32 µM (inactive) | 1.5 µM (inactive) | 3.41 µM (inactive) | 3.33 µM (inactive) | 1.64 µM (inactive) | 2.23 µM (inactive) | 1.63 µM (inactive) | 5.78 µM (inactive) | 4.11 µM (inactive) | 3.35 µM (inactive) | 1.66 µM (inactive) | 1.35 µM (inactive) | 1.48 µM (inactive) | 2.09 µM (inactive) | 12.5 µM (inactive)
CCCNC(=O)Cn1c(-c2ccccc2)cc2ccccc21 | 92.3 µM (inactive) | > 100 µM (inactive) | > 100 µM (inactive) | 42.4 µM (inactive) | 92 µM (inactive) | 85.1 µM (inactive) | 54 µM (inactive) | 71.8 µM (inactive) | 24.4 µM (inactive) | 48 µM (inactive) | 92 µM (inactive) | > 100 µM (inactive) | 43.1 µM (inactive) | 31.8 µM (inactive) | 32.7 µM (inactive) | 43.9 µM (inactive) | 77.3 µM (inactive) | > 100 µM (inactive) | 24.2 µM (inactive) | > 100 µM (inactive)
N=C1C(=N)c2ccccc2-c2ccccc21 | 1.38 µM (inactive) | 1.96 µM (inactive) | 1.73 µM (inactive) | 0.492 µM (active) | 2.1 µM (inactive) | 0.337 µM (active) | 2.09 µM (inactive) | 1.41 µM (inactive) | 1.45 µM (inactive) | 0.6 µM (active) | 1.19 µM (inactive) | 0.513 µM (active) | 1.65 µM (inactive) | 2.64 µM (inactive) | 0.313 µM (active) | 2 µM (inactive) | 0.199 µM (active) | 2 µM (inactive) | 0.419 µM (active) | 1.53 µM (inactive)
Cc1cc(N(CCC#N)CCC#N)ccc1C(/N=N/c1ccccc1)=N\NC(=O)c1ccccc1 | 29.3 µM (inactive) | 22.9 µM (inactive) | 20.4 µM (inactive) | 20.2 µM (inactive) | 42.8 µM (inactive) | 19.5 µM (inactive) | 25.5 µM (inactive) | 16.4 µM (inactive) | 29.2 µM (inactive) | 30.5 µM (inactive) | 34 µM (inactive) | 9.84 µM (inactive) | 7.66 µM (inactive) | 31.5 µM (inactive) | 57 µM (inactive) | 28.2 µM (inactive) | 8.04 µM (inactive) | 86.9 µM (inactive) | 5.2 µM (inactive) | 40.4 µM (inactive)
COC1=C(Cl)C(=O)c2c(O)ccc(O)c2C1=O | 4.44 µM (inactive) | 13 µM (inactive) | 0.212 µM (active) | 0.843 µM (active) | 2.43 µM (inactive) | 0.0372 µM (active) | 0.287 µM (active) | 1.02 µM (active) | 2.07 µM (inactive) | 1.91 µM (inactive) | 0.478 µM (active) | 0.826 µM (active) | 1.05 µM (active) | 1.11 µM (active) | 1.66 µM (inactive) | 1.7 µM (inactive) | 1.28 µM (inactive) | 3.01 µM (inactive) | 1.03 µM (active) | 5.98 µM (inactive)
COc1ccc(OC)c([N+](=O)[O-])c1-c1nc2sc(C)c(C)n2c1/C=N/N=C(N)N | 91.6 µM (inactive) | 46.3 µM (inactive) | 29.9 µM (inactive) | > 100 µM (inactive) | 45.6 µM (inactive) | 13.9 µM (inactive) | > 100 µM (inactive) | > 100 µM (inactive) | 95.7 µM (inactive) | > 100 µM (inactive) | 60.7 µM (inactive) | 33.3 µM (inactive) | > 100 µM (inactive) | 48.3 µM (inactive) | 76.7 µM (inactive) | 27.3 µM (inactive) | 43.1 µM (inactive) | > 100 µM (inactive) | 23.4 µM (inactive) | 36.3 µM (inactive)
COC(=O)c1ccccc1C1CN=NC12Cc1ccc(C)c(C)c1C2=O (stereo not given) | 52.4 µM (inactive) | 68.9 µM (inactive) | 53.7 µM (inactive) | 21.9 µM (inactive) | > 100 µM (inactive) | 26.1 µM (inactive) | > 100 µM (inactive) | > 100 µM (inactive) | 31.6 µM (inactive) | 19.1 µM (inactive) | > 100 µM (inactive) | 28.9 µM (inactive) | 56.2 µM (inactive) | > 100 µM (inactive) | 40.2 µM (inactive) | > 100 µM (inactive) | 64.3 µM (inactive) | > 100 µM (inactive) | 20.5 µM (inactive) | > 100 µM (inactive)
COc1ccc(/C=N/Nc2nc(=S)[nH]c3[nH]ncc23)cc1 | 79.8 µM (inactive) | 35 µM (inactive) | 18.3 µM (inactive) | > 100 µM (inactive) | 93.8 µM (inactive) | > 100 µM (inactive) | 43.4 µM (inactive) | 43.3 µM (inactive) | 49 µM (inactive) | 27.5 µM (inactive) | 38.2 µM (inactive) | > 100 µM (inactive) | 33.1 µM (inactive) | > 100 µM (inactive) | 34.6 µM (inactive) | 25 µM (inactive) | 30.6 µM (inactive) | 45.5 µM (inactive) | 14.5 µM (inactive) | 22.2 µM (inactive)
O=C(O)CCC(=O)c1ccc2ccc3cccc4ccc1c2c34 | 39.3 µM (inactive) | 21.4 µM (inactive) | 44.9 µM (inactive) | 96.4 µM (inactive) | 61.7 µM (inactive) | 60.3 µM (inactive) | 68.9 µM (inactive) | 52.7 µM (inactive) | > 100 µM (inactive) | > 100 µM (inactive) | > 100 µM (inactive) | 81.7 µM (inactive) | 49.1 µM (inactive) | > 100 µM (inactive) | 64 µM (inactive) | 70.3 µM (inactive) | 98.2 µM (inactive) | > 100 µM (inactive) | 83 µM (inactive) | 92.9 µM (inactive)
